Results reported in patent publication US11691972B2, “Compounds for targeted degradation of BRD9” (C4 Therapeutics, Inc., priority 2020, dated 2023).
Like-named read-outs stand apart in the source and are kept apart here.

Tests used:
Plasma stability, rat = format: in vitro ADME
PPB, rat = format: in vitro ADME; conditions: plasma
[1] = Hepatocyte stability, human; format: in vitro ADME; conditions: human hepatocytes; read-out: Hepatocyte stability, Clint scaled ws
[2] = system: Yamato (SS18-SSX fusion; BAF perturbed) cells; experiment: Confluence perturbation (IncuCyte S3) in Yamato cells; format: cell-based; conditions: 10 nM to 10^4 nM, single dose, 20-day period; FIG. 4, 16, 17; SW982 cells also tested
Procedure: FIG. 4, FIG. 16, and FIG. 17 are line graphs illustrating the confluence caused by Compound 172 and Compound 176 at various concentrations. The x-axis is time measured in days and the y axis is confluence measured as a percentage of control. The compounds were incubated at 10 nM, 32 nM, 100 nM, 316 nM, 1000 nM, and 10^4 nM concentrations at a single dose. The compounds were tested in a Yamato (SS18-SSX fusion; BAF perturbed) cells and SW982 (BAF wildtype) cells.
Compound 172 was serially diluted in DMSO and 200 nL were dispensed into 96 well tissue-culture treated plates by the Echo acoustic liquid handler. Yamato cells were counted and adjusted to 11,000 cells/mL with DMEM media supplemented with 10% heat-inactivated FBS. 200 ul of the cell suspension was dispensed into each well. The plate was sealed with a gas-permeable membrane and confluence was measured in a temperature- and humidity-controlled incubator (37° C., 5% CO2) over a 20-day period at 6-hour intervals by the IncuCyte S3. […]
Compound 176 and a comparator BRD9 inhibitor were serially diluted in DMSO and 200 nL were dispensed into 96 well tissue-culture treated plates by the Echo acoustic liquid handler. Yamato cells were counted and adjusted to 11,000 cells/mL with DMEM media supplemented with 10% heat-inactivated FBS. […]

BRD9 = target: T1, BRD9 (Homo sapiens, UniProt Q9H8M2); experiment: HiBiT BRD9 degradation assay in 293T.166 (BRD9-HiBiT) cells; format: cell-based; design: endogenously expressing BRD9 with HiBiT fusion tag via CRISPR; host or cells: 293T.166 (BRD9-HiBiT), also expressing LgBiT ectopically
T1 sequence (Q9H8M2 1-597): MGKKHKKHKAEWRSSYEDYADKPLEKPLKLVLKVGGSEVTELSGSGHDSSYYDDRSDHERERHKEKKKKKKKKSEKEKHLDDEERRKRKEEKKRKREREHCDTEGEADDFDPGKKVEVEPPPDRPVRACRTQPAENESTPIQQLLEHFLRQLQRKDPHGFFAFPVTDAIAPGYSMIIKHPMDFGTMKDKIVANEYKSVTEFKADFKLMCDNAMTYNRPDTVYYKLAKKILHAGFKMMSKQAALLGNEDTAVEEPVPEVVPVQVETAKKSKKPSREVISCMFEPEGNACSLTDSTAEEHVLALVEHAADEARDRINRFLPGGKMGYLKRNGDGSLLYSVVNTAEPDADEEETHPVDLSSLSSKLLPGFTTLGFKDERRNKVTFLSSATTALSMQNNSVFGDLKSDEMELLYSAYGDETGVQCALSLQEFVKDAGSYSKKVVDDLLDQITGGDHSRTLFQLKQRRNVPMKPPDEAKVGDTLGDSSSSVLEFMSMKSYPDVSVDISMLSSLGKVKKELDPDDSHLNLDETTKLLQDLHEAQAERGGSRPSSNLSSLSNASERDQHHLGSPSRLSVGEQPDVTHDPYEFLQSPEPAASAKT
How it was run: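 Luminescence from the Nano-Glo HiBiT lytic reagent quantified BRD9 loss after compounds (top 10 μM, half-log, 11 points, duplicates) were incubated 2 h at 37° C. with 10,000 293T.166 BRD9-HiBiT/LgBiT cells per well, with controls lacking compound or lacking reagent.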

E3 = E3 (Homo sapiens, UniProt Q96SW2); experiment: FP-E3 binding (Kd)
Sequence of E3 (Q96SW2 whole entry): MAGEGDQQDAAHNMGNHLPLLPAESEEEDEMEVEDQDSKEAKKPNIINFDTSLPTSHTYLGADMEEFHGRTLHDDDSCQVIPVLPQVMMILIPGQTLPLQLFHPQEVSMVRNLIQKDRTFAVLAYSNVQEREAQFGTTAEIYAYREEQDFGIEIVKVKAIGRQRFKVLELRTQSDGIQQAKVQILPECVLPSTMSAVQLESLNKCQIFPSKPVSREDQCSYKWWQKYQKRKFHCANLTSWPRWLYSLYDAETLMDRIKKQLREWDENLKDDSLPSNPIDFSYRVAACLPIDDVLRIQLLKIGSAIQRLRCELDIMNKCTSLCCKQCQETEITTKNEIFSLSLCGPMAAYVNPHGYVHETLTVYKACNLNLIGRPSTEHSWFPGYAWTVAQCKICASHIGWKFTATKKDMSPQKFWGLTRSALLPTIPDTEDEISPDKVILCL

BRD7 = target: T2, BRD7 (Homo sapiens, UniProt Q9NPI1); experiment: BRD7 degradation (24 h), HiBiT 293T.167 cells; format: cell-based
T2 construct: endogenously expressing BRD7 with HiBiT fusion tag via CRISPR; host or cells: 293T.167 (BRD7-HiBiT), also expressing LgBiT ectopically
T2 sequence (Q9NPI1 whole entry, the tested form may be a part): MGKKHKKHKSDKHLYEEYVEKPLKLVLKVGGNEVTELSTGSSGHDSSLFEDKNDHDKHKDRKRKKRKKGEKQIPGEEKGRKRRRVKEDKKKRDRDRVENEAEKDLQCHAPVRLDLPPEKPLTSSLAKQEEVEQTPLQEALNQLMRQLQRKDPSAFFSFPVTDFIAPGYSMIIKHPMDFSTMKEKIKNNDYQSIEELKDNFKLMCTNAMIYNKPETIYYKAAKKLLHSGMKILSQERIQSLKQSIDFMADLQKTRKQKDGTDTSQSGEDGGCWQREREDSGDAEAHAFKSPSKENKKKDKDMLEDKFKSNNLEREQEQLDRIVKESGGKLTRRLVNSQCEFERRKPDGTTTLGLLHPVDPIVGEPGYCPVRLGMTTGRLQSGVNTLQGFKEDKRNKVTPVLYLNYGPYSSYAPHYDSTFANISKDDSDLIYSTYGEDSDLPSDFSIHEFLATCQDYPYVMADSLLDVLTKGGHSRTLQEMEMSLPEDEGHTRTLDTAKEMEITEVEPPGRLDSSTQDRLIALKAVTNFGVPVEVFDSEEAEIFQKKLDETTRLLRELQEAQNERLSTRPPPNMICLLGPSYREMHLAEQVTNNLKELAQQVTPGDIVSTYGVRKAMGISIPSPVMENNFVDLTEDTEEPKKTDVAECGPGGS
Description: Dulbecco's modified Eagle medium (DMEM) without phenol red and fetal bovine serum (FBS) were purchased from Gibco (Grand Island, N.Y., USA). Nano-Glo® HiBiT Lytic Assay System was purchased from Promega (Madison, Wis., USA). 293T.166 (BRD9-HiBiT) cell line, endogenously expressing BRD9 with HiBiT fusion tag via CRISPR and ectopically expressing LgBiT tag, was purchased from Promega (Madison, Wis., USA). 293T.167 (BRD7-HiBiT) cell line, endogenously expressing BRD7 with HiBiT fusion tag via CRISPR and ectopically expressing LgBiT tag, was purchased from Promega (Madison, Wis., USA). 293T.92 (BRD4-HiBiT) cell line, endogenously expressing BRD4 with HiBiT fusion tag via CRISPR and ectopically expressing LgBiT tag, was generated in-house. Cell culture flasks and 384-well microplates were acquired from VWR (Radnor, Pa., USA).
BRD9 degradation was determined based on quantification of luminescent signal using Nano-Glo® HiBiT Lytic Assay kit. Test compounds were added to the 384-well plate from a top concentration of 10 μM with 11 points, half log titration in duplicates. 293T.166 cells were added into 384-well plates at a cell density of 10,000 cells per well. […] BRD7 and BRD4 degradation was similarly determined with 293T.167 cells and 293T.92 cells, respectively. […] Luminescence was acquired on EnVision™ Multilabel Reader (PerkinElmer, Santa Clara, Calif., USA).

SW982 = SW982 viability (GI50); format: cell-based; conditions: Homo sapiens; SW982 cells
[3] = Table 1, 293T.166 cells, 2.0 hours, class symbols, read-out: HiBiT-Degradation 293T.166 BRD9 2.0 hours (DC50)

| SMILES | Stability (plasma) % remaining @3 hrs (Plasma stability, rat) [%] | fraction unbound (PPB, rat) | CLint scaled [1] [mL/min/kg] | confluence as a percentage of control [2] | DC50 (BRD9; [3]) [nM] | Kd (E3) [nM] | Emax (BRD7) [%] | DC50 (BRD7; 24 h, read-out: BRD7 degradation (24 h), IP) [nM] | GI50 (SW982) [nM] | BRD9 degradation (2 h), Kendo 17 h, percent (BRD9; 2 h) [%] | DC50 (BRD9; 2 h, read-out: BRD9 degradation (2 h), Kendo 17 h, concentration) [nM] |
| --- | --- | --- | --- | --- | --- | --- | --- | --- | --- | --- | --- |
| COc1cc(-c2cn(C)c(=O)c(C)c2C)cc(OC)c1CN1CCC(N2CCN(c3ccc(NC4CCC(=O)NC4=O)cc3F)CC2)C(F)(F)C1 (single isomer, unassigned) [Compound 176, 3-[4-[4-[1-[[2,6-dimethoxy-4-(1,4,5-trimethyl-6-oxo-3-pyridyl)phenyl]methyl]-3,3-difluoro-4-piperidyl]piperazin-1-yl]-3-fluoro-anilino]piperidine-2,6-dione] | 88 | 0.098 | 9.4 | A dose response is clearly visible | < 100 | – | – | – | – | – | – |
| COc1cc(-c2cn(C)c(=O)c(C)c2C)cc(OC)c1CN1CCC(N2CCN(c3ccc(NC4CCC(=O)NC4=O)cc3F)CC2)C(F)(F)C1 (stereo not shown) [Compound 172, 3-[4-[4-[1-[[2,6-dimethoxy-4-(1,4,5-trimethyl-6-oxo-3-pyridyl)phenyl]methyl]-3,3-difluoro-4-piperidyl]piperazin-1-yl]-3-fluoro-anilino]piperidine-2,6-dione] | 97.0 | 0.083 | 9.4 | A dose response is clearly visible | < 100 | 950 | 100 | > 9990 | > 10000 | 5 | 3.4 |
